Non-standard residues stand in square brackets, D forms with d. Residues, ends and D or L forms follow the SMILES beside them. d(pGlu) = O=C1CC[C@H](C(=O)O)N1
Legend:
[1] = tested on: Male Sprague-Dawley-CD rats; test: Thermoregulative properties: core (rectal) temperature of rats at 4° C. after intracisternal injection; format: in vivo, rat; details: 60 minutes following injection, control 36.5°
Protocol: The thermoregulative properties of the peptides were determined as follows:

[2] = tested on: Male Sprague-Dawley-CD rats; test: Rise in plasma glucose after the 60 minute core temperature measurement; format: in vivo, rat; set-up: concentration or dose not given beside the values; details: rise in plasma glucose relative to Bombesin (= 100), after intracisternal injection
Protocol: Male Sprague-Dawley-CD rats weighing 180-200 grams each were housed in temperature and humidity controlled quarters. The rats were fed a standard rat food ration and tap water ad libitum. After being anesthetized with ether, peptides were injected into the cisterna magna of the brain of each rat. The peptides were dissolved in artificial CSF or distilled water. Ten microliters of a peptide solution containing the specified amounts of the peptide were injected. Immediately following the injection, the animals were transferred to a cold room maintained at 4° C. Rectal temperatures were recorded with a thermo-probe at 60 minutes following injection. All experiments were carried out in a randomized block design. Following analyses of variance, differences between groups were determined by the multiple range test of Dunnet and Duncan using the computer program Exbiol.
Following the 60 minute measurement of core temperature, the rats were rapidly decapitated, blood was collected and plasma levels of glucose were determined using a Beckman glucose analyzer. The results in causing a rise in plasma glucose relative to Bombesin are set forth hereinafter in Table III.

[3] = tested on: mammals; details: compared with neurotensin and bombesin; cited from earlier work

Molecule	CORE TEMPERATURE ([1]; dosage 7 nanomoles)	CORE TEMPERATURE ([1]; dosage 7 picomoles)	CORE TEMPERATURE ([1]; dosage 20 picomoles)	CORE TEMPERATURE ([1]; dosage 70 picomoles)	POTENCY (Plasma Glucose) [2]	CORE TEMPERATURE ([1]; dosage 1 nanomole)	CORE TEMPERATURE ([1]; dosage 10 picomoles)	CORE TEMPERATURE ([1]; dosage 100 picomoles)	potency (analgesic and thermoregulative effects) [3]
CSCC[C@H](NC(=O)[C@H](CC(C)C)NC(=O)[C@H](Cc1cnc[nH]1)NC(=O)CNC(=O)[C@@H](NC(=O)[C@H](C)NC(=O)[C@H](Cc1c[nH]c2ccccc12)NC(=O)[C@H](CCC(N)=O)NC(=O)[C@H](CC(N)=O)NC(=O)CNC(=O)[C@H](CC(C)C)NC(=O)[C@H](CCCN=C(N)N)NC(=O)[C@H](CCC(N)=O)NC(=O)[C@@H]1CCC(=O)N1)C(C)C)C(N)=O [Bombesin]	32.1 °C	34.7 °C	33.8 °C	33 °C	100	–	–	–	–
CSCC[C@H](NC(=O)[C@H](CC(C)C)NC(=O)[C@H](Cc1c[nH]cn1)NC(=O)CNC(=O)[C@@H](NC(=O)[C@H](C)NC(=O)[C@H](Cc1c[nH]c2ccccc12)NC(=O)[C@H](Cc1c[nH]cn1)NC(C)=O)C(C)C)C(N)=O [Peptide No. 1]	–	–	–	–	100	32.6 °C	34.3 °C	33.2 °C	–
CSCC[C@H](NC(=O)[C@H](CC(C)C)NC(=O)[C@H](Cc1c[nH]cn1)NC(=O)[C@@H](C)NC(=O)[C@@H](NC(=O)[C@H](C)NC(=O)[C@H](Cc1c[nH]c2ccccc12)NC(=O)[C@H](C)NC(C)=O)C(C)C)C(N)=O [Peptide No. 2] (Ac-AWAV[dA]HLM-NH2)	–	–	–	–	150	30.4 °C	34.3 °C	31.9 °C	–
CSCC[C@H](NC(=O)[C@H](CC(C)C)NC(=O)[C@H](Cc1c[nH]cn1)NC(=O)[C@@H](C)NC(=O)[C@@H](NC(=O)[C@H](C)NC(=O)[C@H](Cc1c[nH]c2ccccc12)NC(=O)[C@@H](CCC(N)=O)NC(C)=O)C(C)C)C(N)=O [Peptide No. 3]	–	–	–	–	150	–	32.3 °C	31.9 °C	–
CSCC[C@H](NC(=O)[C@H](CC(C)C)NC(=O)[C@H](Cc1c[nH]cn1)NC(=O)CNC(=O)[C@@H](NC(=O)[C@H](C)NC(=O)[C@H](Cc1c[nH]c2ccccc12)NC(=O)[C@H](C)NC(C)=O)C(C)C)C(N)=O [Peptide No. 4]	–	–	–	–	40	–	35.1 °C	33.2 °C	–
[d(pGlu)]WAV[dA]HLM-NH2	–	–	–	–	–	–	–	–	more potent than neurotensin, it is less potent than bombesin
